The EC50 is the concentration needed to bring the measured effect to its halfway point. A low value points to an effect from little substance.

This is an account of results in EP4772500A1, “NOVEL ISOXAZOLE COMPOUND AS TM4SF5-SPECIFIC INHIBITOR AND USE THEREOF” (Seoul National University R&DB Foundation, priority 2023, dated 2025).

The structures appear in SMILES notation. Several values for one entry are separate records, joined by “and”; a condition that tells them apart may be missing. Identical values can stand only once.

In data set [1] the test system is TM4SF5-expressing cells (SNU449T7). Kind of data set: 2D cell growth/proliferation. Type of data set: cell-based, human. Conditions: 2D environment, drug every 24 hours (FIG. 3a). Here is the method:
The drugs treated were the positive control drug TSAHC or the ST-1-025 isoxazole compound at the given concentrations. From the time of starting culture (0 day), (FIG. 3a) in the case of 2D culture, the number of cells was measured after treating with the drug every 24 hours, or (FIG. 3b) in a 3D environment, the proliferation of cells (spheres) was observed and photographed with an optical microscope on the 5th and 7th days after a single drug treatment at the start of culture.

Data set [2] concerns liver cancer patient-derived cancer fragments (HCC cube) confirmed to express TM4SF5. Kind of data set: TM4SF5-expressing HCC-PDX (patient-derived tissue xenograft) model. Type of data set: in vivo, NOD/SCID mice. Conditions: for body weight: 5 mg/kg IP twice a week (FIG. 21c); for tumor volume: vs vehicle (FIG. 21c); for PD-L1 expression / SLAMF7 staining / expression of TM4SF5: immunohistochemistry (FIG. 21e); for expressions of Ki67, AFP, F4/80, CCL2 and CCL5, and laminin γ2: immunohistochemistry (FIG. 21d); for cancer formation: immunohistochemistry or H&E staining (FIG. 21d). On the procedure: The experiment was conducted by obtaining patient-derived liver cancer segments (P0; HCC cube, 1 mm^3) confirmed to express TM4SF5 from Seoul National University Hospital, which passed the normal IRB approval process (H-2102-059-1195). The hair from the right thigh to the flank of 6-week-old male NOD/SCID mice was removed, and the mice were anesthetized by inhalation with […] isoflurane. Thereafter, a cancer segment was implanted into the right […] of the mice. When the cancer segments were engrafted and grew beyond a certain size at 4 to 5 weeks after implanting the tissue, the animals were sacrificed to obtain cancer segments (P1). The cancer segments were cut into a size of 1 mm^3 and placed in cryotubes with Recovery-Cell Culture Freezing Medium (Gibco) and stored in a […] liquid nitrogen tank. After obtaining P2 and P3 cancer segments in the same manner as above, one P3 cancer segment (1 mm^3) was implanted per 6-week-old male NOD/SCID mouse to establish the HCC-PDX mouse model used in this experiment. From the 8th day after implanting the cancer segments, vehicle, drug ST-5-001, or ST-5-002 was intraperitoneally injected at 5 mg/kg twice a week for a total of 6 times. On the 28th day after implanting the cancer tissue, the animals were sacrificed, and liver cancer tissues were obtained and used for analysis.
(a-d) A TM4SF5-expressing HCC-PDX model was established by implanting liver cancer patient-derived cancer fragments (HCC cube, 1 mm^3), confirmed to express TM4SF5, into the right thigh of 6-week-old male NOD/SCID mice (n=8) deficient in T, B, and NK immune cells. Starting from the 8th day after the tissue implantation, vehicle, drug ST-5-001, or ST-5-002 was intraperitoneally injected at 5 mg/kg twice a week on the indicated dates (a). After 6 injections, the animals were sacrificed on the 28th day after the cancer tissue implantation, liver tissues were obtained, and images of the livers were taken (b). From the 8th day after the implantation, body weight and tumor volume were measured and recorded on each drug injection day (c). Meanwhile, for a portion of the liver tissues, the expression level, distribution, and localization of each factor, as well as the degree of damage to the liver cancer tissue, were confirmed through immunohistochemistry or H&E staining for the given protein factors (d).

The target in data set [3] is T1, HA-TM4SF5 obtained from Huh7KO-HA-TM4SF5 (Homo sapiens, UniProt O14894).
T1 construct: expressed in transfected cells; host or cells: Huh7KO (TM4SF5 knockout Huh7) stably infected with pBabe-HA-TM4SF5 retrovirus; captured with anti-HA antibody
T1 sequence (O14894 1-197): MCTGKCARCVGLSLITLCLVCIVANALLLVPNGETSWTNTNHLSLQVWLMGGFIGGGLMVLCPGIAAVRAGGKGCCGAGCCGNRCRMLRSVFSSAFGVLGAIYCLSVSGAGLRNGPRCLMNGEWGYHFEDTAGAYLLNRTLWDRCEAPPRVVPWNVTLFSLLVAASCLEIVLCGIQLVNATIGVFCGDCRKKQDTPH
Kind of data set: Binding of 14C-labelled ST-5-002 to pulled-down HA-TM4SF5. On the procedure: For Huh7KO cells, stable cell lines were established by infecting with a retrovirus inducing the expression of pBabe-HA-EV or pBabe-HA-TM4SF5. Cell extracts were obtained, and extracts containing 0.2 or 0.25 mg of protein were reacted with an anti-HA antibody and HA-tagged TM4SF5, or with streptavidin agarose resin for Strep-PD-L1 or Strep-TM4SF5 at 4°C for 2 hours for pulldown. Subsequently, in the presence or absence of cold ST-5-002 (400 µM), the samples were treated with ^14C-labelled ST-5-002 (10 or 25 µM) and reacted at 4°C for 1 hour, after which radioactive isotope values were repeatedly measured using a TriCarb scintillation counter (PerkinElmer, Waltham, MA).
After culturing HEK293FT cells transfected with Strep-EV or Strep-TM4SF5 expression vectors, or Huh7KO cells stably expressing pBabe-HA-EV or pBabe-HA-TM4SF5, cell extracts were obtained. […] The pulled-down proteins were treated with ^14C-labelled ST-5-002 at various concentrations (10 nM, 100 nM, 1 µM, 5 µM, 10 µM, 50 µM) and reacted at 4°C for 1 hour, after which radioactive isotope values were repeatedly measured using a TriCarb scintillation counter (PerkinElmer, Waltham, MA). The EC50 was calculated by normalizing the average radioactive isotope value of TM4SF5 obtained through the measurements by dividing it by the average value of EV. […]

Consider `COc1ccc(-c2cc(-c3ccc(N)cc3)no2)cc1` [ST-1-025, 4-(5-(4-methoxyphenyl)isoxazole-3-yl)aniline], for which the growth or proliferation result in data set [1] is given as “decreased”.

As for `CC(=O)Nc1ccc(-c2cc(-c3ccc(O)cc3)no2)cc1` [ST-5-001, N-(4-(3-(4-hydroxyphenyl)isoxazole-5-yl)phenyl)acetamide], in data set [2], the body weight entry was “not affected”, the PD-L1 expression result is “decrease”, the SLAMF7 staining entry is recorded as “infiltrating into the cancer site” and the “expression of TM4SF5” value is “not significantly different”. Moreover, in data set [2], the “expressions of Ki67, AFP, F4/80, CCL2 and CCL5, and laminin γ2” value is “significantly inhibited and lowered”; the cancer formation result is given as “inhibited”. For the same molecule, the tumor volume result in data set [2] (5 mg/kg IP twice a week) is listed as “significantly reduced”.

As for `Cc1ccc(C(=O)Nc2ccc(-c3cc(-c4ccc(O)cc4)no3)cc2)cc1` [ST-5-002, N-(4-(3-(4-hydroxyphenyl)isoxazole-5-yl)phenyl)-4-methylbenzamide], in data set [3] (14C-labelled ST-5-002, HA-TM4SF5, 4°C, 1 hour (FIG. 19b)), the EC50 is 850 nM and 875 nM. In data set [3] (simultaneous treatment with cold ST-5-002 (400 µM) (FIG. 19b)), the “binding of 14C-labelled ST-5-002 to HA-TM4SF5” value was “decreased”. Moreover, in data set [2], the body weight entry is on record as “not affected”, the PD-L1 expression entry is recorded as “decrease”, the SLAMF7 staining result is “infiltrating into the cancer site” and the “expression of TM4SF5” value is reported as “not significantly different”. In addition, in data set [2], the “expressions of Ki67, AFP, F4/80, CCL2 and CCL5, and laminin γ2” value is “significantly inhibited and lowered”; the cancer formation result was “inhibited”. The “inhibitory effect on liver cancer formation” value in data set [2] (5 mg/kg IP twice a week, 6 times, images (FIG. 21b)) is “distinct”. Also, in data set [2] (5 mg/kg IP twice a week), the tumor volume result is “significantly reduced”.

For the molecule `Cc1ccc(S(=O)(=O)Nc2ccc(C(=O)/C=C/c3ccc(O)cc3)cc2)cc1` [TSAHC, 4'-(p-toluenesulfonylamino)-4-hydroxychalcone, reference compound], the growth or proliferation entry in data set [1] is “decreased”.
